Test results taken from the supplement of paper PMC10307832.

What was measured:
Assay in all cases: relative viability (nuclei count vs DMSO), 5 days (fraction); higher = more cells survive
XMD13-2 + Alpelisib = compound: C1CC1C(=O)NC2=NNC3=C2C=CC(=C3)C4=CC(=CC=C4)C(=O)NC5CC5 [XMD13-2] + Cc1nc(NC(=O)N2CCC[C@H]2C(N)=O)sc1-c1ccnc(C(C)(C)C(F)(F)F)c1 [Alpelisib] (partner 2 µM)
Method in brief: (§1)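 Nuclei were stained with Hoechst during a one-step fixation (final 0.05% Triton X-100, 1% formaldehyde, 1 ug/ml Hoechst) carried out 5 days after dosing, then counted on 4× images. The cells, lung cancer lines in 1536-well plates, had been dosed by pin tool the day after seeding with one drug alone or a fixed anchor-drug dose plus five library-drug doses (not always all listed) in √10 steps. Relative viability is the nuclei count in treated wells divided by that in vehicle wells, and each value is the median of duplicate plates.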

ALW-II-49-7 + Lapatinib = compound: Cc1ccc(C(=O)Nc2cccc(C(F)(F)F)c2)cc1Nc1cncc(C(N)=O)c1 [ALW-II-49-7] + CS(=O)(=O)CCNCc1ccc(-c2ccc3ncnc(Nc4ccc(OCc5cccc(F)c5)c(Cl)c4)c3c2)o1 [Lapatinib] (partner 2 µM)
Method in brief: as §1

ALW-II-49-7 + Pemetrexed = compound: Cc1ccc(C(=O)Nc2cccc(C(F)(F)F)c2)cc1Nc1cncc(C(N)=O)c1 [ALW-II-49-7] + Nc1nc2[nH]cc(CCc3ccc(C(=O)N[C@@H](CCC(=O)O)C(=O)O)cc3)c2c(=O)[nH]1 [Pemetrexed] (partner 0.2 µM)
Method in brief: as §1

Dasatinib + Olaparib = compound: Cc1nc(Nc2ncc(C(=O)Nc3c(C)cccc3Cl)s2)cc(N2CCN(CCO)CC2)n1 [Dasatinib] + O=C(c1cc(Cc2n[nH]c(=O)c3ccccc23)ccc1F)N1CCN(C(=O)C2CC2)CC1 [Olaparib] (partner 8 µM)
Method in brief: as §1

| Cell Line | relative viability (XMD13-2 + Alpelisib; first compound 0.05 µM) | relative viability (XMD13-2 + Alpelisib; first compound 0.1581 µM) | relative viability (XMD13-2 + Alpelisib; first compound 0.5 µM) | relative viability (XMD13-2 + Alpelisib; first compound 1.581 µM) | relative viability (XMD13-2 + Alpelisib; first compound 5 µM) | relative viability (ALW-II-49-7 + Lapatinib; first compound 0.08 µM) | relative viability (ALW-II-49-7 + Lapatinib; first compound 0.253 µM) | relative viability (ALW-II-49-7 + Lapatinib; first compound 0.8 µM) | relative viability (ALW-II-49-7 + Lapatinib; first compound 2.53 µM) | relative viability (ALW-II-49-7 + Lapatinib; first compound 8 µM) | relative viability (ALW-II-49-7 + Pemetrexed; first compound 0.08 µM) | relative viability (ALW-II-49-7 + Pemetrexed; first compound 0.253 µM) | relative viability (ALW-II-49-7 + Pemetrexed; first compound 0.8 µM) | relative viability (ALW-II-49-7 + Pemetrexed; first compound 2.53 µM) | relative viability (ALW-II-49-7 + Pemetrexed; first compound 8 µM) | relative viability (Dasatinib + Olaparib; first compound 0.005 µM) | relative viability (Dasatinib + Olaparib; first compound 0.01581 µM) | relative viability (Dasatinib + Olaparib; first compound 0.05 µM) | relative viability (Dasatinib + Olaparib; first compound 0.1581 µM) | relative viability (Dasatinib + Olaparib; first compound 0.5 µM) |
| --- | --- | --- | --- | --- | --- | --- | --- | --- | --- | --- | --- | --- | --- | --- | --- | --- | --- | --- | --- | --- |
| NCI-H2228 | 0.768 | 0.716 | 0.771 | 0.772 | 0.655 | 0.996 | 0.595 | 0.984 | 1.08 | 0.659 | 0.323 | 0.356 | 0.356 | 0.289 | 0.134 | 0.847 | 0.647 | 0.714 | 0.464 | 0.273 |
| NCI-H2347 | 1.04 | 1.07 | 1.08 | 0.92 | 1.05 | 1.11 | 0.958 | 1.11 | 0.85 | 0.8 | 0.438 | 0.441 | 0.417 | 0.509 | 0.377 | 0.566 | 0.508 | 0.482 | 0.269 | 0.256 |
| NCI-H2405 | 0.935 | 0.875 | 0.807 | 0.81 | 0.863 | 1.01 | 1.24 | 0.972 | 0.938 | 0.89 | 1.14 | 1.12 | 0.898 | 1.06 | 0.791 | 0.749 | 0.531 | 0.458 | 0.282 | 0.231 |
| NCI-H3122 | 0.784 | 0.678 | 0.782 | 0.945 | 0.819 | 1.11 | 0.92 | 1.05 | 1.11 | 1.05 | 0.201 | 0.174 | 0.207 | 0.216 | 0.186 | 0.606 | 0.543 | 0.657 | 0.574 | 0.534 |
| PC-3 [JPC-3] | 1.05 | 0.983 | 1.06 | 1.02 | 0.936 | 0.387 | 0.461 | 0.485 | 0.471 | 0.419 | 0.976 | 0.909 | 0.843 | 1.27 | 0.947 | 1.22 | 1.14 | 1.16 | 1.08 | 0.609 |
